Source: PubChem BioAssay AID1259411 (Chemical Carcinogenesis Research Information System (CCRIS), 2018)
The source made the active and inactive calls. How the calls were made is not given here.

System: rodent carcinogenicity bioassays, tumor incidence
Assay: CCRIS carcinogenicity studies
Details: Dose: 0, Dose: 0
In short: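 NCI-built, expert-reviewed records of carcinogenicity and related test outcomes (mutagenicity, tumor promotion/inhibition) compiled from published and report sources, historical span 1985-2011, not updated.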

Nc1cc(Cl)nc(C(=O)O)c1Cl
carcinogen call (Species: Mouse, Strain/Sex: CD-1/Female, Route: Oral, 5, 250, 1000 mg/kg/d in feed for 18 mo, 5, 250, 1000 mg/kg/d in feed for 18 mo): inactive; negative; purity was 94.5%
carcinogen call (Species: Mouse, Strain/Sex: CD-1/Male, Route: Oral, 5, 250, 1000 mg/kg/d in feed for 18 mo, 5, 250, 1000 mg/kg/d in feed for 18 mo): inactive; negative; purity was 94.5%
carcinogen call (Species: Rat, Strain/Sex: F344/Female, Route: Oral, 5, 50, 500, 1000 mg/kg/d in feed for 24 mo, 5, 50, 500, 1000 mg/kg/d in feed for 24 mo): inactive; negative; purity was 94.5%
carcinogen call (Species: Rat, Strain/Sex: F344/Male, Route: Oral, 5, 50, 500, 1000 mg/kg/d in feed for 24 mo, 5, 50, 500, 1000 mg/kg/d in feed for 24 mo): inactive; negative; purity was 94.5%

C=CC(=O)OCCCC
carcinogen call (Species: MOUSE, Strain/Sex: C3H/MALE, Route: DERMAL, 0.2 MG IN 25 µL ACETONE 3/WK FOR LIFESPAN (STUDY DURATION: LIFESPAN)): inactive; negative
carcinogen call (Species: RAT, Strain/Sex: SPRAGUE-DAWLEY/FEMALE, Route: INHALATION, 15, 45, 135 PPM 6 HR/D 5 D/WK FOR 24 MO (STUDY DURATION: 130 WK), 15, 45, 135 PPM 6 HR/D 5 D/WK FOR 24 MO (STUDY DURATION: 130 WK)): inactive; negative
carcinogen call (Species: RAT, Strain/Sex: SPRAGUE-DAWLEY/MALE, Route: INHALATION, 15, 45, 135 PPM 6 HR/D 5 D/WK FOR 24 MO (STUDY DURATION: 130 WK), 15, 45, 135 PPM 6 HR/D 5 D/WK FOR 24 MO (STUDY DURATION: 130 WK)): inactive; negative

CC1=CC(=O)CC(C)(C)C1
carcinogen call (Species: MOUSE, Strain/Sex: B6C3F1/FEMALE, Route: GAVAGE, 250, 500 MG/KG IN CORN OIL 5 D/WK FOR 103 WK (STUDY DURATION: 105 WK), 250, 500 MG/KG IN CORN OIL 5 D/WK FOR 103 WK (STUDY DURATION: 105 WK)): inactive; negative
carcinogen call (Species: MOUSE, Strain/Sex: B6C3F1/MALE, Route: GAVAGE, 250, 500 MG/KG IN CORN OIL 5 D/WK FOR 103 WK (STUDY DURATION: 105 WK), 250, 500 MG/KG IN CORN OIL 5 D/WK FOR 103 WK (STUDY DURATION: 105 WK), Tumor Site: Type of Lesion: LIVER: HEPATOCELLULAR ADENOMA OR CARCINOMA, INTEGUMENTARY SYSTEM: MESENCHYMAL TUMOR, HEMATOPOIETIC SYSTEM: MALIGNANT LYM, Tumor Site: Type of Lesion: LIVER: HEPATOCELLULAR ADENOMA OR CARCINOMA, INTEGUMENTARY SYSTEM: MESENCHYMAL TUMOR, HEMATOPOIETIC SYSTEM: MALIGNANT LYM): equivocal
carcinogen call (Species: RAT, Strain/Sex: F344/FEMALE, Route: GAVAGE, 250, 500 MG/KG IN CORN OIL 5 D/WK FOR 103 WK (STUDY DURATION: 105 WK), 250, 500 MG/KG IN CORN OIL 5 D/WK FOR 103 WK (STUDY DURATION: 105 WK)): inactive; negative
carcinogen call (Species: RAT, Strain/Sex: F344/MALE, Route: GAVAGE, 250, 500 MG/KG IN CORN OIL 5 D/WK FOR 103 WK (STUDY DURATION: 105 WK), 250, 500 MG/KG IN CORN OIL 5 D/WK FOR 103 WK (STUDY DURATION: 105 WK), Tumor Site: Type of Lesion: PREPUTIAL GLAND: CARCINOMA, KIDNEY: TUBULAR CELL ADENOMA OR ADENOCARCINOMA, PANCREAS: ACINAR CELL ADENOMA, Tumor Site: Type of Lesion: PREPUTIAL GLAND: CARCINOMA, KIDNEY: TUBULAR CELL ADENOMA OR ADENOCARCINOMA, PANCREAS: ACINAR CELL ADENOMA): active; positive

Nc1ccc(Cc2ccc(N)cc2)cc1
carcinogen call (Species: MOUSE, Strain/Sex: B6C3F1/FEMALE, Route: ORAL, 0.015, 0.03% IN DIET FOR 103 WK (STUDY DURATION: 104 WK), 0.015, 0.03% IN DIET FOR 103 WK (STUDY DURATION: 104 WK), Tumor Site: Type of Lesion: THYROID GLAND: FOLLICULAR ADENOMA, LIVER: HEPATOCELLULAR ADENOMA, LIVER: HEPATOCELLULAR CARCINOMA, Tumor Site: Type of Lesion: THYROID GLAND: FOLLICULAR ADENOMA, LIVER: HEPATOCELLULAR ADENOMA, LIVER: HEPATOCELLULAR CARCINOMA): active; positive
carcinogen call (Species: MOUSE, Strain/Sex: B6C3F1/FEMALE, Route: ORAL, 150, 300 PPM IN DRINKING WATER, 150, 300 PPM IN DRINKING WATER, Tumor Site: Type of Lesion: THYROID GLAND: FOLLICULAR CELL ADENOMA, CARCINOMA, LIVER: HEPATOCELLULAR ADENOMA, CARCINOMA, LYMPHATIC SYSTEM: MALIGNANT, Tumor Site: Type of Lesion: THYROID GLAND: FOLLICULAR CELL ADENOMA, CARCINOMA, LIVER: HEPATOCELLULAR ADENOMA, CARCINOMA, LYMPHATIC SYSTEM: MALIGNANT): active; positive
carcinogen call (Species: MOUSE, Strain/Sex: B6C3F1/MALE, Route: ORAL, 0.015, 0.03% IN DIET FOR 103 WK (STUDY DURATION: 104 WK), 0.015, 0.03% IN DIET FOR 103 WK (STUDY DURATION: 104 WK), Tumor Site: Type of Lesion: THYROID GLAND: FOLLICULAR ADENOMA, LIVER: HEPATOCELLULAR CARCINOMA): active; positive
carcinogen call (Species: MOUSE, Strain/Sex: B6C3F1/MALE, Route: ORAL, 150, 300 PPM IN DRINKING WATER, 150, 300 PPM IN DRINKING WATER, Tumor Site: Type of Lesion: THYROID GLAND: FOLLICULAR CELL ADENOMA, ADRENAL GLAND: PHEOCHROMOCYTOMA, LIVER: HEPATOCELLULAR ADENOMA, CARCINOMA, Tumor Site: Type of Lesion: THYROID GLAND: FOLLICULAR CELL ADENOMA, ADRENAL GLAND: PHEOCHROMOCYTOMA, LIVER: HEPATOCELLULAR ADENOMA, CARCINOMA): active; positive
carcinogen call (Species: RAT, Strain/Sex: F344/FEMALE, Route: ORAL, 0.015, 0.03% IN DIET FOR 103 WK (STUDY DURATION: 104 WK), 0.015, 0.03% IN DIET FOR 103 WK (STUDY DURATION: 104 WK), Tumor Site: Type of Lesion: THYROID GLAND: FOLLICULAR ADENOMA): active; positive
carcinogen call (Species: RAT, Strain/Sex: F344/FEMALE, Route: ORAL, 150, 300 PPM IN DRINKING WATER, 150, 300 PPM IN DRINKING WATER, Tumor Site: Type of Lesion: THYROID GLAND: FOLLICULAR CELL ADENOMA, CARCINOMA, C CELL ADENOMA, CARCINOMA): active; positive
carcinogen call (Species: RAT, Strain/Sex: F344/MALE, Route: ORAL, 0.15, 0.03% IN DIET FOR 103 WK (STUDY DURATION: 104 WK), 0.15, 0.03% IN DIET FOR 103 WK (STUDY DURATION: 104 WK), Tumor Site: Type of Lesion: THYROID GLAND: FOLLICULAR CARCINOMA, LIVER: NEOPLASTIC NODULE): active; positive
carcinogen call (Species: RAT, Strain/Sex: F344/MALE, Route: ORAL, 150, 300 PPM IN DRINKING WATER, 150, 300 PPM IN DRINKING WATER, Tumor Site: Type of Lesion: THYROID GLAND: FOLLICULAR CELL ADENOMA, CARCINOMA, LIVER: NEOPLASTIC NODULE): active; positive

C1O[C@@H]1[C@H]1CO1
carcinogen call (Species: MOUSE, Strain/Sex: B6C3F1/FEMALE, Route: INHALATION, 2.5, 5.0 PPM 6 HR/D 5 D/WK FOR 6 WK (STUDY DURATION: 84 WK), 2.5, 5.0 PPM 6 HR/D 5 D/WK FOR 6 WK (STUDY DURATION: 84 WK), Tumor Site: Type of Lesion: HARDERIAN GLAND: TUMOR): active; positive
carcinogen call (Species: RAT, Strain/Sex: SPRAGUE-DAWLEY/FEMALE, Route: INHALATION, 2.5, 5.0 PPM 6 HR/D 5 D/WK FOR 6 WK (STUDY DURATION: 84 WK), 2.5, 5.0 PPM 6 HR/D 5 D/WK FOR 6 WK (STUDY DURATION: 84 WK), Tumor Site: Type of Lesion: NASAL MUCOSA: TUMOR): active; positive

Cc1cccc(C)c1N
carcinogen call (Species: RAT, Strain/Sex: CD/FEMALE, Route: ORAL, 300, 1000, 3000 PPM IN FEED FOR 102 WK (STUDY DURATION: 104 WK), 300, 1000, 3000 PPM IN FEED FOR 102 WK (STUDY DURATION: 104 WK), Tumor Site: Type of Lesion: SUBCUTANEOUS TISSUE: FIBROMA, FIBROMA OR FIBROSARCOMA, NASAL CAVITY: PAPILLARY ADENOMA, ADENOMA OR PAPILLARY ADENOMA, CA): active; positive
carcinogen call (Species: RAT, Strain/Sex: CD/MALE, Route: ORAL, 300, 1000, 3000 PPM IN FEED FOR 102 WK (STUDY DURATION: 104 WK), 300, 1000, 3000 PPM IN FEED FOR 102 WK (STUDY DURATION: 104 WK), Tumor Site: Type of Lesion: SUBCUTANEOUS TISSUE: FIBROMA, FIBROMA OR NEUROFIBROMA, FIBROMA OR FIBROSARCOMA, NASAL CAVITY: PAPILLARY ADENOMA, CARCINO): active; positive
